From article PMC6784447, “Evaluation of 3-Chlorobenzoate 1,2-Dioxygenase Inhibition by 2- and 4-Chlorobenzoate with a Cell-Based Technique” (Biosensors, 2019)

Tested on: T1, 3-chlorobenzoate-1,2-dioxygenase (3-CBDO; 3-CBA-1,2-DO)
T1 construct: native enzyme, not purified, in intact freshly harvested 3-CBA-grown cells; component and subunit make-up printed only for the analogous benzoate 1,2-dioxygenase; with 3-chlorobenzoate 1,2-dioxygenase subunit beta (benzoate 1,2-dioxygenase small subunit-like); 3-chlorobenzoate 1,2-dioxygenase reductase component (benzoate 1,2-dioxygenase reductase-like)
Test: respiration of intact cells, Clark oxygen electrode reactor biosensor; Hill fit
Assay type: cell-based, Rhodococcus opacus
Conditions: 50 mM Tris-HCl pH 8.0, air-saturated, room temperature; intact 3-CBA-grown cells (indirect estimate of enzyme activity); Hill n 2.36; no added inhibitor; read-out: S0.5

## O=C(O)c1cccc(Cl)c1 [3-chlorobenzoate]
  Km: 45.3 ± 6.3 µM
